Assay in all cases: MIC, microdilution broth method (NCCLS)
Format in all cases: cell-based
(In general: Dilution methods test growth across graded concentrations, often in twofold steps.)

The subject of assay [1] is E. coli OC2605. The conditions noted are these: A: E. coli OC2605, 35° C., 16-20 hours. The method, then: (§1) Minimal inhibitory concentration (MIC) has been an indicator of in vitro antibacterial activity widely used in the art. The in vitro antimicrobial activity of the compounds was determined by the microdilution broth method following the test method from the National Committee for Clinical Laboratory Standards (NCCLS). This method is described in the NCCLS Document M7-A4, Vol. 17, No. 2, “Methods for Dilution Antimicrobial Susceptibility Test for Bacteria that Grow Aerobically—Fourth Edition”, which is incorporated herein by reference.
(§2) In this method two-fold serial dilutions of drug in cation adjusted Mueller-Hinton broth are added to wells in microdilution trays. The test organisms are prepared by adjusting the turbidity of actively growing broth cultures so that the final concentration of test organism after it is added to the wells is approximately 5×10^4 CFU/well.
(§3) Following inoculation of the microdilution trays, the trays are incubated at 35° C. for 16-20 hours and then read. […] The amount of growth in the wells containing the test compound is compared with the amount of growth in the growth-control wells (no test compound) used in each tray. As set forth in Table 1, compounds of the present invention were tested against a variety of Gram positive and Gram negative pathogenic bacteria resulting in a range of activities depending on the organism tested.

In assay [2] the test system is E. faecalis ATCC29212. The conditions noted are these: C: E. faecalis ATCC29212, 35° C., 16-20 hours. The procedure:
as §1, §2, §3

The subject of assay [3] is H. influenzae ATCC49247. To be noted: E: H. influenzae ATCC49247, 35° C., 16-20 hours. The method, then: as §1, §2, §3
In assay [4] the test system is S. aureus ATCC29213. To be noted: B: S. aureus ATCC29213, 35° C., 16-20 hours. The procedure: as §1, §2, §3
The subject of assay [5] is S. pneumoniae ATCC49619. The conditions noted are these: D: S. pneumoniae ATCC49619, 35° C., 16-20 hours. The procedure: as §1, §2, §3
Where [6] appears, read: Escherichia coli, read-out: MIC.
The mark [7] stands for this setting: Enterococcus faecalis, read-out: MIC.
[8] abbreviates: Staphylococcus aureus, read-out: MIC.

In brackets after ≈: the same amount, converted by molar mass. Where two headings read alike, the source gives them in different places. A value given as a limit tells only on which side of the number the result lay.

For the compound `CC[C@H]1OC(=O)[C@H](C)C(=O)[C@H](C)[C@@H](O[C@@H]2O[C@H](C)C[C@H](N(C)C)[C@H]2O)[C@](C)(OC(=O)NCC#Cc2ccc(-n3cccn3)cc2)C[C@@H](C)C(=O)[C@H](C)[C@H]2NC(=O)O[C@@]21C` [Compound 82], the MIC in assay [1] is over 16 µg/mL; in assay [2], 0.06 µg/mL (≈ 0.073 µM); in assay [3], 4 µg/mL (≈ 4.87 µM); in assay [4], 0.25 µg/mL (≈ 0.304 µM); in assay [5], 0.03 µg/mL (≈ 0.0365 µM).

Regarding `CCC1OC(=O)C(C)(F)C(=O)C(C)C(OC2OC(C)CC(N(C)C)C2O)C(C)(OC(=O)NCC=Cc2cn(-c3ncccn3)cn2)CC(C)C(=NO)C(C)C2NC(=O)OC12C` (stereo not drawn) [Compound 124], the MIC was 16 µg/mL (≈ 18.6 µM) in assay [1]; 0.12 µg/mL (≈ 0.14 µM) in assay [2]; 4 µg/mL (≈ 4.66 µM) in assay [3]; 0.25 µg/mL (≈ 0.291 µM) in assay [4]; 0.03 µg/mL (≈ 0.0349 µM) in assay [5].

Consider `CC[C@H]1OC(=O)[C@H](C)C(=O)[C@H](C)[C@@H](O[C@@H]2O[C@H](C)C[C@H](N(C)C)[C@H]2O)[C@](C)(OC(=O)NC2CC(c3ccc(-c4ncccn4)cc3)C2)C[C@@H](C)C(=O)[C@H](C)[C@H]2NC(=O)O[C@@]21C` (stereo partly drawn) [Compound 136], for which the MIC is over 16 µg/mL in assay [1], 4 µg/mL (≈ 4.71 µM) in assay [2], over 16 µg/mL in assay [3] and 2 µg/mL (≈ 2.35 µM) in assay [5].

As to `CC[C@H]1OC(=O)[C@H](C)C(=O)[C@H](C)[C@@H](O[C@@H]2O[C@H](C)C[C@H](N(C)C)[C@H]2O)[C@](C)(OC(=O)NCc2ccccc2)C[C@@H](C)C(=O)[C@H](C)[C@H]2NC(=O)O[C@@]21C` [Compound 1], the MIC in assay [1] is over 16 µg/mL; in assay [2], 0.12 µg/mL (≈ 0.164 µM); in assay [4] it was 4 µg/mL (≈ 5.47 µM); in assay [5], 0.03 µg/mL (≈ 0.041 µM).

`CCC1OC(=O)C(C)(F)C(=O)C(C)C(OC2OC(C)CC(N(C)C)C2O)C(C)(OC(=O)NCC=Cc2ccc(-c3ccncn3)cc2)CC(C)C(=O)C(C)C2NC(=O)OC12C` (stereo not drawn) [Compound 100]: the MIC in assay [1] was determined as 16 µg/mL (≈ 18.7 µM); in assay [2] it was 0.12 µg/mL (≈ 0.141 µM); in assay [3], 2 µg/mL (≈ 2.34 µM); in assay [4] it was 0.5 µg/mL (≈ 0.585 µM).

In the case of `CC[C@H]1OC(=O)[C@H](C)C(=O)[C@H](C)[C@@H](O[C@@H]2O[C@H](C)C[C@H](N(C)C)[C@H]2O)[C@](C)(OC(=O)NCc2ccc(Br)cc2)C[C@@H](C)C(=O)[C@H](C)[C@H]2NC(=O)O[C@@]21C` [Compound 5], the MIC in assay [1] was over 16 µg/mL; in assay [2], 0.25 µg/mL (≈ 0.308 µM); in assay [4] it was 0.5 µg/mL (≈ 0.617 µM); in assay [5] it was 0.03 µg/mL (≈ 0.037 µM).

In the case of `CC[C@H]1OC(=O)[C@H](C)C(=O)[C@H](C)[C@@H](O[C@@H]2O[C@H](C)C[C@H](N(C)C)[C@H]2O)[C@](C)(OC(=O)NC/C=C/c2ccc(-n3cnnc3)cc2)C[C@@H](C)C(=O)[C@H](C)[C@H]2NC(=O)O[C@@]21C` [Compound 40], the MIC came to 16 µg/mL (≈ 19.4 µM) in assay [1], 0.5 µg/mL (≈ 0.606 µM) in assay [2], 1 µg/mL (≈ 1.21 µM) in assay [4] and 0.12 µg/mL (≈ 0.145 µM) in assay [5].

Consider `CC[C@H]1OC(=O)[C@H](C)C(=O)[C@H](C)[C@@H](O[C@@H]2O[C@H](C)C[C@H](N(C)C)[C@H]2O)[C@](C)(OC(=O)NC/C=C/c2cccc(-n3cccn3)n2)C[C@@H](C)C(=O)[C@H](C)[C@H]2NC(=O)O[C@@]21C` [Compound 48], for which the MIC in assay [1] was over 16 µg/mL; in assay [2], 0.12 µg/mL (≈ 0.145 µM); in assay [3] it was 4 µg/mL (≈ 4.85 µM); in assay [4], 0.5 µg/mL (≈ 0.606 µM).

In the case of `CC[C@H]1OC(=O)[C@H](C)C(=O)[C@H](C)[C@@H](O[C@@H]2O[C@H](C)C[C@H](N(C)C)[C@H]2O)[C@](C)(OC(=O)NC/C=C/c2ccnc3ccccc23)C[C@@H](C)C(=O)[C@H](C)[C@H]2NC(=O)O[C@@]21C` [Compound 34], the MIC in assay [1] was 8 µg/mL (≈ 9.89 µM); in assay [2], 0.06 µg/mL (≈ 0.0742 µM); in assay [4], 0.12 µg/mL (≈ 0.148 µM); in assay [5] it was “≦0.015 μg/mL”.

Consider `CC[C@H]1OC(=O)[C@H](C)C(=O)[C@H](C)[C@@H](O[C@@H]2O[C@H](C)C[C@H](N(C)C)[C@H]2O)[C@](C)(OC(=O)NC/C=C/c2ccc3ncccc3c2)C[C@@H](C)C(=O)[C@H](C)[C@H]2NC(=O)O[C@@]21C` [Compound 38], for which the MIC was 8 µg/mL (≈ 9.89 µM) in assay [1], 0.03 µg/mL (≈ 0.0371 µM) in assay [2], 0.12 µg/mL (≈ 0.148 µM) in assay [4] and “≦0.015 μg/mL” in assay [5].

For `CC[C@H]1OC(=O)[C@H](C)C(=O)[C@H](C)[C@@H](O[C@@H]2O[C@H](C)C[C@H](N(C)C)[C@H]2O)[C@](C)(OC(=O)NC/C=C/c2ccc(-n3ccnn3)cc2)C[C@@H](C)C(=O)[C@H](C)[C@H]2NC(=O)O[C@@]21C` [Compound 33], the MIC in assay [1] is 8 µg/mL (≈ 9.7 µM); in assay [2] it was 0.06 µg/mL (≈ 0.0727 µM); in assay [4] it was 0.12 µg/mL (≈ 0.145 µM); in assay [5], “≦0.015 μg/mL”.

As for `CC[C@H]1OC(=O)[C@H](C)C(=O)[C@H](C)[C@@H](O[C@@H]2O[C@H](C)C[C@H](N(C)C)[C@H]2O)[C@](C)(OC(=O)NCc2cccc(-c3ccccn3)c2)C[C@@H](C)C(=O)[C@H](C)[C@H]2NC(=O)O[C@@]21C` [Compound 37], the MIC in assay [1] is 16 µg/mL (≈ 19.8 µM); in assay [2], 0.12 µg/mL (≈ 0.148 µM); in assay [4] it was 0.5 µg/mL (≈ 0.618 µM); in assay [5], 0.03 µg/mL (≈ 0.0371 µM).

As to `CC[C@H]1OC(=O)[C@H](C)[C@@H](O)[C@H](C)[C@@H](O[C@@H]2O[C@H](C)C[C@H](N(C)C)[C@H]2O)[C@](C)(OC(=O)NC/C=C/c2ccc(-c3ncccn3)cc2)C[C@@H](C)C(=O)[C@H](C)[C@H]2NC(=O)O[C@@]21C` [Compound 95], the MIC was over 16 µg/mL in assay [1] (setting [6]); 0.25 µg/mL (≈ 0.298 µM) in assay [2] (setting [7]); 2 µg/mL (≈ 2.39 µM) in assay [3] (Haemophilus influenzae, read-out: MIC); 1 µg/mL (≈ 1.19 µM) in assay [4] (setting [8]).

For `CCC1OC(=O)C(C)(F)C(=O)C(C)C(OC2OC(C)CC(N(C)C)C2O)C(C)(OC(=O)NCC=Cc2ccc(-c3cccnn3)cc2)CC(C)C(=O)C(C)C2NC(=O)OC12C` (stereo not drawn) [Compound 99], the MIC in assay [1] is 8 µg/mL (≈ 9.37 µM); in assay [2] it was 0.12 µg/mL (≈ 0.141 µM); in assay [3], 1 µg/mL (≈ 1.17 µM); in assay [4], 0.5 µg/mL (≈ 0.585 µM).

In the case of `CC[C@H]1OC(=O)[C@H](C)C(=O)[C@H](C)[C@@H](O[C@@H]2O[C@H](C)C[C@H](N(C)C)[C@H]2O)[C@](C)(OC(=O)NC/C=C/c2ccc3cccnc3c2)C[C@@H](C)C(=O)[C@H](C)[C@H]2NC(=O)O[C@@]21C` [Compound 47], the MIC came to 16 µg/mL (≈ 19.8 µM) in assay [1], 0.06 µg/mL (≈ 0.0742 µM) in assay [2], 1 µg/mL (≈ 1.24 µM) in assay [3] and 0.25 µg/mL (≈ 0.309 µM) in assay [4].

Regarding `CC[C@H]1OC(=O)[C@H](C)C(=O)[C@H](C)[C@@H](O[C@@H]2O[C@H](C)C[C@H](N(C)C)[C@H]2O)[C@](C)(OC(N)=O)C[C@@H](C)C(=O)[C@H](C)[C@H]2NC(=O)O[C@@]21C` [Compound 6], the MIC was over 16 µg/mL in assay [1], 1 µg/mL (≈ 1.56 µM) in assay [2], 4 µg/mL (≈ 6.23 µM) in assay [4] and 0.12 µg/mL (≈ 0.187 µM) in assay [5].

In the case of `CC[C@H]1OC(=O)[C@H](C)C(=O)[C@H](C)[C@@H](O[C@@H]2O[C@H](C)C[C@H](N(C)C)[C@H]2O)[C@](C)(OC(=O)NC/C=C/c2ccc(-c3ncccn3)cc2)C[C@@H](C)C(=O)[C@H](C)[C@H]2NC(=O)O[C@@]21C` [Compound 32, Carbamic acid, [(2E)-3-[4-(2-pyrimidinyl)phenyl]-2-propenyl]-, (3aS,4R,7R,9R,10R,11R,13R,15R,15aR)-4-ethyltetradecahydro-3a,7,9,11,13,15-hexamethyl-2,6,8,14-tetraoxo-10-[[3,4,6-trideoxy-3-(dimethylamino)-β-D-xylo-hexopyranosyl]oxy]-2H-oxacyclotetradecino[4,3-d]oxazol-11-yl ester], the MIC in assay [1] (setting [6]) amounted to 16 µg/mL (≈ 19.1 µM); in assay [2] (setting [7]) it was 0.06 µg/mL (≈ 0.0718 µM); in assay [4] (setting [8]), 0.12 µg/mL (≈ 0.144 µM); in assay [5] (Streptococcus pneumoniae, read-out: MIC), 0.06 µg/mL (≈ 0.0718 µM).

In the case of `CC[C@H]1OC(=O)[C@H](C)C(=O)[C@H](C)[C@@H](O[C@@H]2O[C@H](C)C[C@H](N(C)C)[C@H]2O)[C@](C)(OC(=O)NC/C=C/c2cccc3cccnc23)C[C@@H](C)C(=O)[C@H](C)[C@H]2NC(=O)O[C@@]21C` [Compound 46], the MIC was 16 µg/mL (≈ 19.8 µM) in assay [1], 0.06 µg/mL (≈ 0.0742 µM) in assay [2], 2 µg/mL (≈ 2.47 µM) in assay [3] and 0.25 µg/mL (≈ 0.309 µM) in assay [4].

`CC[C@H]1OC(=O)[C@H](C)C(=O)[C@H](C)[C@@H](O[C@@H]2O[C@H](C)C[C@H](N(C)C)[C@H]2O)[C@](C)(OC(=O)NC/C=C/c2cccc(-c3ccccn3)c2)C[C@@H](C)C(=O)[C@H](C)[C@H]2NC(=O)O[C@@]21C` [Compound 36]: the MIC was 8 µg/mL (≈ 9.58 µM) in assay [1], 0.03 µg/mL (≈ 0.0359 µM) in assay [2], 0.12 µg/mL (≈ 0.144 µM) in assay [4] and “≦0.015 μg/mL” in assay [5].

The record behind these values is patent publication US6613747B2, “6-O-carbamoyl ketolide antibacterials” (Ortho-McNeil Pharmaceutical, Inc., priority 2000, dated 2003).
